Results: the NIST ThermoML archive (doi:10.1021/je900058p)
Numbers after ± are expanded uncertainties.

Legend:
[1] = Liquid; for mass density: 293.13 K, 101.33 kPa
[2] = refractive index (Na D-line) (dimensionless); settings: 293.13 K; 101.33 kPa; Liquid; Standard Abbe refractometry

| mass density [1] [kg/m3] | vapor or sublimation pressure ([1]; 359.51 K) [kPa] | vapor or sublimation pressure ([1]; 379.52 K) [kPa] | vapor or sublimation pressure ([1]; 392.57 K) [kPa] | vapor or sublimation pressure ([1]; 400.69 K) [kPa] | refractive index [2] | vapor or sublimation pressure ([1]; 383.1 K) [kPa] | vapor or sublimation pressure ([1]; 404.24 K) [kPa] | vapor or sublimation pressure ([1]; 417.99 K) [kPa] | vapor or sublimation pressure ([1]; 426.54 K) [kPa] | vapor or sublimation pressure ([1]; 410.86 K) [kPa] | SMILES |
| --- | --- | --- | --- | --- | --- | --- | --- | --- | --- | --- | --- |
| 811.2 ± 0.4 | 26.66 ± 0.27 | 53.33 ± 0.32 | 79.99 ± 0.45 | 101.32 ± 0.53 | 1.4008 ± 0.0007 |  |  |  |  |  | CCCCC(C)=O [2-hexanone] |
| 994.1 ± 0.2 |  |  |  |  | 1.5171 ± 0.0007 | 26.66 ± 0.25 | 53.33 ± 0.3 | 79.99 ± 0.43 | 101.32 ± 0.5 |  | COc1ccccc1 [anisole] |
| 814.5 ± 0.4 |  |  |  |  | 1.4098 ± 0.0007 |  |  |  |  | 101.32 ± 1 | CCCCCO [pentan-1-ol] |
